Assays:
LD50 i.p. in mice = details: mouse, in vivo, ip
carrageenin oedema = assay: Antiinflammatory action (rats), carrageenin oedema; assay type: in vivo; details: for inhibition of carrageenin oedema: 200 mg/kg (p.o.); for inhibition (carrageenin): rats, 100 mg/kg p.o.
Method: Antiinflammatory action (Rats): Dose: 100 mg/kg p.o.
(ii) It produces 30% inhibition when given 1/2 hour before the injection of carrageenin.
Effect on carrageenin oedema at 200 mg/kg (p.o.)
(i) 60% inhibition when given 1 hour before the injection of carrageenin.
(iii) 62% of inhibition when given 1/2 hour after the injection of carrageenin.
Antiinflammatory action (Rats)
Effect on carrageenin oedema at 200 mg/kg

[1] = test system: formaldehyde induced arthritis; assay: Formaldehyde arthritis; assay type: in vivo; details: 100 mg/kg orally daily for 10 days
cotton pellet granuloma = assay: Cotton pellet granuloma; assay type: in vivo; details: 100 mg/kg orally daily for 7 days
Ulcerogenic properties = assay type: in vivo; details: 100 mg/kg daily orally for 7 days
[2] = Anti-inflammatory activity in a battery of tests (summary statement); assay type: in vivo
capillary permeability = details: at 100 mg
[3] = 1/2 hour after injection of carrageenin
[4] = 1/2 hour before injection of carrageenin

O=C(COC(=O)c1ccccc1NCCc1ccccc1)c1ccccc1 [2-N-β-phenethyl phenacyl anthranilate, 2-N-β-phenethyl-phenacyl anthranilate]
LD50 (LD50 i.p. in mice): > 800 mg/kg
inhibition of carrageenin oedema (carrageenin oedema; [3]): 62%
inhibition of carrageenin oedema (carrageenin oedema; [4]): 43%
inhibition of carrageenin oedema (carrageenin oedema; 1 hour before injection of carrageenin): 60%
inhibition (carrageenin) (carrageenin oedema; [3]): 43%
inhibition (carrageenin) (carrageenin oedema; [4]): 30%
inhibition (carrageenin) (carrageenin oedema; one hour before injection of carrageenin): 44.5%
inhibition of formaldehyde induced arthritis [1]: 14%
inhibition of cotton pellet granuloma (cotton pellet granuloma): 31%
ulcerogenic activity (Ulcerogenic properties): does not show any ulcerogenic activity
anti-inflammatory activity [2]: potent anti-inflammatory activity
inhibition (mouse capillary permeability) (capillary permeability): 52%

— patent publication US4354033A, “Anthranilic acid esters” (Council of Scientific & Industrial Research, priority 1981, dated 1982)
